The source of these data is patent US9138389B2, “Use of a jasmonic acid compound for treating greasy skin” (L'OREAL, priority 2009, dated 2015).

The assay has as its system greasy skin. Briefly: in vivo panel test with a cosmetic composition on greasy skin. Conditions: cosmetic composition comprising the compound.

As to `CCCCCC1C(O)CCC1CC(=O)O` (stereo not shown) [3-hydroxy-2-pentylcyclopentaneacetic acid], the “efficacy for treating greasy skin” value is “revealed the efficacy of the compound for treating greasy skin”.
